Laboratory results: patent US12077503B2, “Substituted cyclic amides and their use as herbicides” (FMC CORPORATION, priority 2015, dated 2024)

How the values were obtained:
Assay type in all cases: in vivo
corn (Zea mays) = assay: Test A postemergence
Text: (§1) Seeds of plant species selected from barnyardgrass (Echinochloa crus-galli), Kochia (Kochia scoparia), ragweed (common ragweed, Ambrosia elatior), ryegrass, Italian (Italian ryegrass, Lolium multiflorum), crabgrass, large (Digitaria sanguinalis), giant foxtail (Setaria faberii), green foxtail (Setaria viridis), morningglory (Ipomoea spp.), pigweed (Amaranthus retroflexus), velvetleaf (Abutilon theophrasti), wheat (Triticum aestivum), and corn (Zea mays) were planted into a blend of loam soil and sand and treated preemergence with a directed soil spray using test chemicals formulated in anon-phytotoxic solvent mixture which included a surfactant.
(§2) At the same time, plants selected from these crop and weed species and also blackgrass (Alopecurus myosuroides), and Galium (catchweed bedstraw, Galium aparine) were planted in pots containing the same blend of loam soil and sand and treated with postemergence applications of test chemicals formulated in the same manner. Plants ranged in height from 2 to 10 cm and were in the one- to two-leaf stage for the postemergence treatment. Treated plants and untreated controls were maintained in a greenhouse for approximately 10 d, after which time all treated plants were compared to untreated controls and visually evaluated for injury. Plant response ratings, summarized in Table A, are based on a 0 to 100 scale where 0 is no effect and 100 is complete control. A dash (-) response means no test result.

[1] = tested on: blackgrass (Alopecurus myosuroides); assay: Test A postemergence
Text: as §1, §2

[2] = tested on: barnyardgrass (Echinochloa crus-galli); assay: Test A postemergence
Text: as §1, §2

[3] = tested on: pigweed (Amaranthus retroflexus); assay: Test A postemergence
Text: as §1, §2

Kochia (Kochia scoparia) [4] = assay: Test A postemergence
Text: as §1, §2

[5] = tested on: Galium (catchweed bedstraw, Galium aparine); assay: Test A postemergence
Text: as §1, §2

[6] = tested on: ryegrass, Italian (Italian ryegrass, Lolium multiflorum); assay: Test A postemergence
Text: as §1, §2

[7] = tested on: wheat (Triticum aestivum); assay: Test A postemergence
Text: as §1, §2

[8] = tested on: giant foxtail (Setaria faberii); assay: Test A postemergence
Text: as §1, §2

[9] = tested on: ragweed (common ragweed, Ambrosia elatior); assay: Test A postemergence
Text: as §1, §2

[10] = tested on: barnyardgrass (Echinochloa crus-galli); assay: Test A preemergence
Text: as §1, §2

[11] = tested on: pigweed (Amaranthus retroflexus); assay: Test A preemergence
Text: as §1, §2

Kochia (Kochia scoparia) [12] = assay: Test A preemergence
Text: as §1, §2

[13] = tested on: ryegrass, Italian (Italian ryegrass, Lolium multiflorum); assay: Test A preemergence
Text: as §1, §2

[14] = tested on: giant foxtail (Setaria faberii); assay: Test A preemergence
Text: as §1, §2

[15] = tested on: ragweed (common ragweed, Ambrosia elatior); assay: Test A preemergence
Text: as §1, §2

rice (Oryra sativa) = assay: Test B flooded paddy test; details: Flood, 250 g ai/ha; 0 to 100 scale where 0 is no effect and 100 is complete control; 13 to 15 d
Procedure: (§3) Plant species in the flooded paddy test selected from rice (Oryra sativa), sedge, umbrella (small-flower umbrella sedge, Cyperus difformis), ducksalad (Heteranthera limosa), and barnyardgrass (Echinochloa crus-galli) were grown to the 2-leaf stage for testing. At time of treatment, test pots were flooded to 3 cm above the soil surface, treated by application of test compounds directly to the paddy water, and then maintained at that water depth for the duration of the test. Treated plants and controls were maintained in a greenhouse for 13 to 15 d, after which time all species were compared to controls and visually evaluated. Plant response ratings, summarized in Table B, are based on a scale of 0 to 100 where 0 is no effect and 100 is complete control. A dash (-) response means no test result.

[16] = tested on: barnyardgrass (Echinochloa crus-galli); assay: Test B flooded paddy test; details: Flood, 250 g ai/ha; 0 to 100 scale where 0 is no effect and 100 is complete control; 13 to 15 d
Procedure: as §3

[17] = tested on: sedge, umbrella (small-flower umbrella sedge, Cyperus difformis); assay: Test B flooded paddy test; details: Flood, 250 g ai/ha; 0 to 100 scale where 0 is no effect and 100 is complete control; 13 to 15 d
Procedure: as §3

[18] = tested on: ducksalad (Heteranthera limosa); assay: Test B flooded paddy test; details: Flood, 250 g ai/ha; 0 to 100 scale where 0 is no effect and 100 is complete control; 13 to 15 d
Procedure: as §3

[19] = 500 g ai/ha, postemergence, 0 to 100 scale, 0 no effect, 100 complete control
[20] = Postemergence, 125 g ai/ha, visual injury, 0 to 100 scale (0 no effect, 100 complete control), approx. 10 d
[21] = 125 g ai/ha, preemergence, 0 to 100 scale (0 no effect, 100 complete control)
[22] = Preemergence, 500 g ai/ha, 0 is no effect, 100 is complete control

**Q.** Which “Plant response rating, Corn” value (corn (Zea mays); [19]) does the source give for `Cc1ccc(C2CNC(=O)C2C(=O)Nc2ccccc2F)cc1F` (racemic) [Compound 368] here?
**A.** 20

**Q.** What about the “Plant response rating, Corn” value (corn (Zea mays); [20]) of the same compound?
**A.** 0

**Q.** And the “Plant response rating, Blackgrass” value [1, 19]?
**A.** 60

**Q.** What about the “Plant response rating, Blackgrass” value [1, 20] of the same compound?
**A.** 0

**Q.** And the “Plant response rating, Barnyardgrass” value [2, 19]?
**A.** 90

**Q.** What about the “Plant response rating, Barnyardgrass” value [2, 20] of the same compound?
**A.** 90

**Q.** What about the “Plant response rating, Pigweed” value [3, 19] of the same compound?
**A.** 0

**Q.** And the “Plant response rating, Pigweed” value [3, 20]?
**A.** 0

**Q.** And the “Plant response rating, Kochia” value (Kochia (Kochia scoparia) [4]; [19])?
**A.** 0

**Q.** And the “Plant response rating, Kochia” value (Kochia (Kochia scoparia) [4]; [20])?
**A.** 0

**Q.** What about the “Plant response rating, Galium” value [5, 19] of the same compound?
**A.** 50

**Q.** What about the “Plant response rating, Galium” value [5, 20] of the same compound?
**A.** 30

**Q.** And the “Plant response rating, Ryegrass, Italian” value [6, 19]?
**A.** 50

**Q.** And the “Plant response rating, Ryegrass, Italian” value [6, 20]?
**A.** 20

**Q.** And the “Plant response rating, Wheat” value [7, 19]?
**A.** 30

**Q.** And the “Plant response rating, Wheat” value [7, 20]?
**A.** 0

**Q.** What about the “Plant response rating, Foxtail, Giant” value [8, 19] of the same compound?
**A.** 80

**Q.** What about the “Plant response rating, Foxtail, Giant” value [8, 20] of the same compound?
**A.** 20

**Q.** And the “Plant response rating, Ragweed” value [9, 19]?
**A.** 30

**Q.** What about the “Plant response rating, Ragweed” value [9, 20] of the same compound?
**A.** 0

**Q.** And the “Plant response rating, Barnyardgrass” value [10, 21]?
**A.** 90

**Q.** What about the “Barnyardgrass plant response rating (0 to 100 scale)” value [10, 22] of the same compound?
**A.** 90

**Q.** And the “Plant response rating, Pigweed” value [11, 21]?
**A.** 0

**Q.** What about the “Pigweed plant response rating (0 to 100 scale)” value [11, 22] of the same compound?
**A.** 0

**Q.** What about the “Plant response rating, Kochia” value (Kochia (Kochia scoparia) [12]; [21]) of the same compound?
**A.** 0

**Q.** What about the “Kochia plant response rating (0 to 100 scale)” value (Kochia (Kochia scoparia) [12]; [22]) of the same compound?
**A.** 30

**Q.** What about the “Plant response rating, Ryegrass, Italian” value [13, 21] of the same compound?
**A.** 0

**Q.** What about the “Ryegrass, Italian plant response rating (0 to 100 scale)” value [13, 22] of the same compound?
**A.** 30

**Q.** And the “Plant response rating, Foxtail, Giant” value [14, 21]?
**A.** 90

**Q.** And the “Foxtail, Giant plant response rating (0 to 100 scale)” value [14, 22]?
**A.** 90

**Q.** And the “Plant response rating, Ragweed” value [15, 21]?
**A.** 30

**Q.** What about the “Ragweed plant response rating (0 to 100 scale)” value [15, 22] of the same compound?
**A.** 60

**Q.** And the “Plant response rating, Rice” value (rice (Oryra sativa))?
**A.** 15

**Q.** And the “Plant response rating, Barnyardgrass” value [16]?
**A.** 55

**Q.** And the “Plant response rating, Sedge, Umbrella” value [17]?
**A.** 0

**Q.** And the “Plant response rating, Ducksalad” value [18]?
**A.** 100
